“And” between values parts separate entries of the source, which are not always exact repeats. Identical values can stand only once.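 Cells were grown in 96-well plates and exposed to each compound for 48 hours at five concentrations; endpoints were interpolated linearly between bracketing concentrations, or set to the highest concentration if not reached. GI50: concentration for 50% inhibition of growth. The concentration for full growth arrest is given as TGI.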
Assays:
Experiment in all cases: growth of human tumour cells (NCI), 48 h
[1] = system: SNB-19 CNS
[2] = system: SR leukemia
[3] = system: SK-MEL-5 melanoma
[4] = system: DU-145 prostate
[5] = system: HCT-116 colon
[6] = system: OVCAR-4 ovarian
[7] = system: MCF7 breast
[8] = system: MALME-3M melanoma
[9] = system: UACC-257 melanoma
[10] = system: UACC-62 melanoma

Row | SMILES | GI50 [1] | TGI [1] | GI50 [2] | TGI [2] | GI50 [3] | TGI [3] | GI50 [4] | TGI [4] | GI50 [5] | TGI [5] | GI50 [6] | TGI [6] | GI50 [7] | TGI [7] | GI50 [8] | TGI [8] | GI50 [9] | TGI [9] | GI50 [10] | TGI [10]
1 | O=C(c1ccccc1)c1ccc(O)c2ncccc12 | 6.54 µM | > 100 µM | 1.15 µM | > 100 µM | 4.72 µM | 26.6 µM | 5.72 µM | 27.6 µM | 2.62 µM | 10.3 µM | 2.96 µM | 11 µM | 2.93 µM | 9.08 µM | 5.1 µM | 46.4 µM | 5.75 µM | > 100 µM | 2.34 µM | 10.6 µM
2 | N#CSCC1CC(O)(c2ccccc2)CC(c2ccc(Cl)cc2)O1 (stereo unspecified) | 6.9 µM | 19.7 µM | 1.65 µM | 5.02 µM | 0.559 µM | 14.9 µM | 2.18 µM | 4.72 µM | 1.62 µM | 3.1 µM | 4.44 µM | 15.3 µM | 1.84 µM | 4.92 µM | 2.65 µM | 7.35 µM | 3.29 µM | 9.32 µM | 3.31 µM | 10.9 µM
3 | Cc1ccc(N(/C=C/C(=O)C(F)(F)F)CC(=O)c2ccc(Cl)c(Cl)c2)cc1 | 12.9 µM | 25.5 µM | 2.97 µM | 12.6 µM | 5.64 µM | 19.6 µM | 5.77 µM | 20.3 µM | 4.3 µM | 17.7 µM | – | – | 7.27 µM | 20.2 µM | 6 µM | 20.6 µM | 10.3 µM | 22 µM | 5.57 µM | 19 µM
4 | CN(N=O)C(=O)Nc1ccc(C(=O)O)cc1 | – | > 100 µM | – | > 100 µM | – | > 100 µM | – | > 100 µM | – | > 100 µM | – | > 100 µM | – | > 100 µM | – | – | – | > 100 µM | – | > 100 µM
5 | C/C(=C1/N=C(c2ccccc2)OC1=O)c1ccccc1 | – | > 100 µM | – | > 100 µM | – | > 100 µM | – | > 100 µM | – | > 100 µM | – | > 100 µM | – | > 100 µM | – | > 100 µM | – | > 100 µM | – | > 100 µM
6 | COc1cccc2c1C(=O)c1c(O)c3c(c(O)c1C2=O)C[C@@](O)(C(C)=O)C[C@@H]3OC1CC(O)C(O)C(C)O1 (stereo partly specified) | – | 8.41 µM and 20.5 µM | 0.089 µM and 0.0887 µM | 0.451 µM and 0.497 µM | – | 5.06 µM and 2.78 µM | – | 8.55 µM | – | 3.54 µM and 3.82 µM | – | 9.94 µM and 16.9 µM | 0.153 µM | > 94.4 µM | – | 6.66 µM and 5.96 µM | – | – | – | –
7 | COc1ccc2c(c1)C(=O)c1c-2n(CCCN=[N+]=[N-])c(=O)c2cc(N)ccc12 | > 100 µM | > 100 µM | 89.6 µM | > 100 µM | > 100 µM | > 100 µM | > 100 µM | > 100 µM | > 100 µM | > 100 µM | 17.8 µM | > 100 µM | > 100 µM | > 100 µM | > 100 µM | > 100 µM | > 100 µM | > 100 µM | > 100 µM | > 100 µM
8 | COc1ccc(C2SCC(=O)N2NC(=O)C(O)c2ccccc2)cc1 (stereo unspecified) | > 100 µM | > 100 µM | > 100 µM | > 100 µM | > 100 µM | > 100 µM | > 100 µM | > 100 µM | > 100 µM | > 100 µM | > 100 µM | > 100 µM | > 100 µM | > 100 µM | – | – | > 100 µM | > 100 µM | > 100 µM | > 100 µM
9 | CC(=O)Oc1ccccc1C(=O)NCCC[Se]C#N | 1.57 µM | 2.95 µM | 2.02 µM | 9.4 µM | – | – | 1.72 µM | 3.17 µM | 1.87 µM | 5.03 µM | 3.62 µM | 25.7 µM | 2.32 µM | 11.7 µM | 1.72 µM | 3.62 µM | – | – | – | –
10 | OCC#CCCCCOCC#Cc1ccccc1C#CCOCCCCC#CCO | 28.9 µM | > 100 µM | 43.6 µM | > 100 µM | 15.1 µM | 30.5 µM | 17.6 µM | 41.3 µM | 22.5 µM | > 100 µM | 14.8 µM | 53.9 µM | 47.5 µM | > 100 µM | – | – | 37.3 µM | > 100 µM | 18.4 µM | 34.3 µM
11 | CCCC(CCC)Oc1ccc(CCCC2=C(O)c3ccccc3C(=O)C2=O)cc1 | – | – | 3.09 µM | 8.3 µM | 3.14 µM | 13.6 µM | 6.71 µM | 19 µM | 2.17 µM | 13.6 µM | 8.14 µM | 20.5 µM | 4.32 µM | 15.2 µM | 7.53 µM | 23.5 µM | 7.07 µM | 43.1 µM | 3.16 µM | 17 µM
12 | O=C1C(CO)=C[C@@H](O)[C@H]2O[C@@H]12 | – | – | – | > 100 µM | – | > 100 µM | – | > 100 µM | – | > 100 µM | – | 53.4 µM | – | 44.9 µM | – | > 100 µM | – | – | – | > 100 µM
13 | COc1ccc(C2CC(c3cccc(OC)c3)=NN2C(=O)c2cc(OC)c(OC)c(OC)c2)cc1 (stereo unspecified) | 3.16 µM | > 100 µM | 0.359 µM | > 100 µM | 0.534 µM | > 40.4 µM | 2.66 µM | > 41.6 µM | 1.43 µM | > 100 µM | 10.8 µM | > 100 µM | 0.367 µM | > 100 µM | – | – | 83.8 µM | > 100 µM | 1.1 µM | > 100 µM
14 | Clc1ccc(-c2nc(C(Cl)Cl)nc3cc(-c4ccccc4)nn23)cc1 | 1.49 µM | > 50 µM | 0.645 µM | 3.94 µM | > 50 µM | > 50 µM | 0.516 µM | 2.02 µM | 1.67 µM | > 50 µM | 0.917 µM | 3.63 µM | 1.47 µM | > 50 µM | 2 µM | > 50 µM | – | – | – | –
15 | Cc1cccc2c(N=Nc3ccccc3[N+](=O)[O-])c(O)[nH]c12 | – | > 74.1 µM | – | 38.7 µM | – | > 81.9 µM | – | > 100 µM | – | 34 µM | – | 16.9 µM | – | 24.3 µM | – | – | – | > 53.5 µM | – | 73.7 µM
